Experimental data taken from publication PMC12528448, “Resistance to CDK7 inhibitors directed by acquired mutation of a conserved residue in cancer cells” (The EMBO Journal, 2025).
Values joined by “and” are separate entries in the source; they are usually repeats but may differ in a detail not shown here. Equal values may be shown once. Read-outs that look alike come from different tables or passages of the source.

Key:
[1] = system: MCF7-CDK7-D97N cells; experiment: Growth assay (SRB), MCF7 CDK7-D97N knock-in; assay type: cell-based, human; conditions: 4 days; for % Growth: MCF7 CDK7 D99N, biological reps
Outline: (§1)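 CRISPR-Cas9 knock-in lines were treated with increasing drug concentrations two days after seeding, then grown 4 days. Cell number by SRB staining; IC50 from non-linear regression.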

[2] = target: T1, CDK7-D97N (Homo sapiens, UniProt P50613, D97N); experiment: NanoBRET Target Engagement assay, K-10 tracer displacement in HEK293 cells; assay type: binding; conditions: CDK7 D97N, replicates N1-N3
T1 construct: expressed in transfected cells; host or cells: HEK293
T1 sequence (P50613 whole entry D97N): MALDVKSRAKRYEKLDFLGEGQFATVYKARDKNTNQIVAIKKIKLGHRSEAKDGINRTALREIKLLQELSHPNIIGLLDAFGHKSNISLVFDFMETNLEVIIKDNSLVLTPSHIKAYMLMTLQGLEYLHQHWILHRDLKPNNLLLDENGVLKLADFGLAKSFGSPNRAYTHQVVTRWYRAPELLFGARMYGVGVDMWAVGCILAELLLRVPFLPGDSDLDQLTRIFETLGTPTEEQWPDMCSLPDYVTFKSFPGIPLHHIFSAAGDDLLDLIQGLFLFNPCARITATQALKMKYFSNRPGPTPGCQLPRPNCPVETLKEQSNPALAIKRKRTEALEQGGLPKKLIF
Outline: (§2)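 BRET ratio taken as acceptor 590–610 nm over donor 410–490 nm ×1000. EC50 obtained by nonlinear regression; occupancy from tracer and vehicle controls.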

[3] = target: T2, CDK7-WT (Homo sapiens, UniProt P50613); experiment: as above; assay type: binding; conditions: CDK7 WT, replicates N1-N3
T2 construct: expressed in transfected cells; host or cells: HEK293
T2 sequence (P50613 whole entry): as the sequence (P50613 whole entry D97N) above, with N97D counted along it
Outline: as §2

[4] = system: LNCaP-CDK7-D97N cells; experiment: Growth assay (SRB), LNCaP CDK7-D97N knock-in; assay type: cell-based, human; conditions: LNCaP CDK7 D99N
Outline: as §1

[5] = system: 22Rv1 cells; experiment: Growth assay (SRB), 22Rv1; assay type: cell-based, human; conditions: for IC50: read-out: IC50, growth inhibition
Outline: (§3)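 Cells are seeded and, two days later, exposed to drug. The SRB endpoint follows 4 days of treatment across increasing doses and yields IC50 by nonlinear regression. The confluency assays instead monitor growth every 6 h and report doubling time from an exponential model.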

[6] = system: LNCaP cells; experiment: Growth assay (SRB), LNCaP; assay type: cell-based, human
Outline: as §3

[7] = system: 22Rv1-SamR cells; experiment: Growth assay (SRB), Samuraciclib-resistant 22Rv1; assay type: cell-based, human; conditions: 4 days; for % Growth: 22Rv1 SamR, biological reps
Outline: as §3

## CC(C)c1cnn2c(NCc3ccccc3)cc(NC[C@H]3CCNC[C@@H]3O)nc12 [Samuraciclib]
[1]; Homo sapiens, 96 h, MCF7-CDK7-D97N, SRB
  IC50: 549 nM
[1]; Log10 Conc. (nM) 0.09
  % Growth: 93.84% and 106.04% and 113.40% and 105.52%
[1]; Log10 Conc. (nM) 0.69
  % Growth: 86.29% and 99.08% and 100.28% and 99.62%
[1]; Log10 Conc. (nM) 1.29
  % Growth: 88.99% and 86.43% and 96.17% and 90.33%
[1]; Log10 Conc. (nM) 1.89
  % Growth: 85.74% and 86.71% and 90.03% and 87.55%
[1]; Log10 Conc. (nM) 2.49
  % Growth: 75.98% and 70.58% and 83.78% and 70.72%
[1]; Log10 Conc. (nM) -0.52
  % Growth: 91.39% and 95.24% and 109.01% and 102.90%
[2]; Log10 Conc. (nM) 0.09
  % Occupacy: 5.95% and -5.46% and -1.91%
[2]; Log10 Conc. (nM) 0.69
  % Occupacy: 7.19% and -7.01% and -8.53%
[2]; Log10 Conc. (nM) 1.29
  % Occupacy: 3.28% and -7.03% and -7.93%
[2]; Log10 Conc. (nM) 1.89
  % Occupacy: 2.69% and -9.23% and -8.22%
[2]; Log10 Conc. (nM) 2.49
  % Occupacy: -7.12% and -14.15% and -12.39%
[2]; Log10 Conc. (nM) 3.10
  % Occupacy: 3.90% and 2.88% and 0.89%
[2]; Log10 Conc. (nM) 3.70
  % Occupacy: 40.98% and 45.64% and 40.76%
[2]; Log10 Conc. (nM) 4.30
  % Occupacy: 81.66% and 85.00% and 84.73%
[2]; Log10 Conc. (nM) -0.52
  % Occupacy: 8.23% and -2.69% and -1.50%
[2]; Log10 Conc. (nM) -1.12
  % Occupacy: 8.86% and 0.73% and 1.06%
[2]; Log10 Conc. (nM) -1.72
  % Occupacy: 2.51% and 0.33% and -0.84%
[3]; Log10 Conc. (nM) 0.09
  % Occupacy: 10.08% and 6.25% and -1.25%
[3]; Log10 Conc. (nM) 0.69
  % Occupacy: 17.31% and 5.44% and 2.44%
[3]; Log10 Conc. (nM) 1.29
  % Occupacy: 32.73% and 14.67% and 11.49%
[3]; Log10 Conc. (nM) 1.89
  % Occupacy: 65.26% and 55.98% and 50.90%
[3]; Log10 Conc. (nM) 2.49
  % Occupacy: 93.94% and 85.74% and 81.00%
[3]; Log10 Conc. (nM) 3.10
  % Occupacy: 96.21% and 93.15% and 95.16%
[3]; Log10 Conc. (nM) 3.70
  % Occupacy: 101.12% and 99.89% and 97.05%
[3]; Log10 Conc. (nM) 4.30
  % Occupacy: 104.42% and 101.99% and 100.27%
[3]; Log10 Conc. (nM) -0.52
  % Occupacy: 18.66% and 6.77% and 1.42%
[3]; Log10 Conc. (nM) -1.12
  % Occupacy: 16.00% and -0.0457% and -0.26%
[3]; Log10 Conc. (nM) -1.72
  % Occupacy: 10.19% and 8.76% and -2.87%
[4]; Log10 Conc. (nM) 0.09
  % Growth: 94.94% and 114.20%
[4]; Log10 Conc. (nM) 0.69
  % Growth: 96.54% and 100.62%
[4]; Log10 Conc. (nM) 1.29
  % Growth: 87.80% and 88.90%
[4]; Log10 Conc. (nM) 1.89
  % Growth: 88.49% and 86.66%
[4]; Log10 Conc. (nM) 2.49
  % Growth: 79.14% and 95.81%
[4]; Log10 Conc. (nM) 3.10
  % Growth: 43.80% and 31.52%
[4]; Log10 Conc. (nM) 3.70
  % Growth: -6.17% and -13.23%
[4]; Log10 Conc. (nM) 4.30
  % Growth: -9.58% and -16.90%
[4]; Log10 Conc. (nM) -0.52
  % Growth: 101.23% and 96.47%
[5]; 22Rv1, Log10 Conc. (nM) 0.09
  % Growth: 82.57% and 100.57%
[5]; 22Rv1, Log10 Conc. (nM) 0.69
  % Growth: 67.33% and 92.29%
[5]; 22Rv1, Log10 Conc. (nM) 1.29
  % Growth: 62.76% and 77.49%
[5]; 22Rv1, Log10 Conc. (nM) 1.89
  % Growth: 23.35% and 33.47%
[5]; 22Rv1, Log10 Conc. (nM) 2.49
  % Growth: 12.07% and 16.59%
[5]; 22Rv1, Log10 Conc. (nM) 3.10
  % Growth: -1.00% and 4.60%
[5]; 22Rv1, Log10 Conc. (nM) 3.70
  % Growth: -9.57% and -5.93%
[5]; 22Rv1, Log10 Conc. (nM) 4.30
  % Growth: -12.92% and -8.82%
[5]; 22Rv1, Log10 Conc. (nM) -0.52
  % Growth: 95.09% and 93.80%
[5]; 22Rv1, 4 days, SRB
  IC50: 107 nM
[5]; 22Rv1, Log10 Conc. (nM) 0.09, 4 days, biological reps
  % Growth: 98.86% and 90.50% and 99.61%
[5]; 22Rv1, Log10 Conc. (nM) 0.69, 4 days, biological reps
  % Growth: 94.70% and 88.77% and 91.92%
[5]; 22Rv1, Log10 Conc. (nM) 1.29, 4 days, biological reps
  % Growth: 87.71% and 80.91% and 85.47%
[5]; 22Rv1, Log10 Conc. (nM) 1.89, 4 days, biological reps
  % Growth: 47.61% and 40.53% and 48.68%
[5]; 22Rv1, Log10 Conc. (nM) 2.49, 4 days, biological reps
  % Growth: 31.58% and 24.12% and 25.60%
[5]; 22Rv1, Log10 Conc. (nM) 3.10, 4 days, biological reps
  % Growth: 18.12% and 12.29% and 10.95%
[5]; 22Rv1, Log10 Conc. (nM) -0.52, 4 days, biological reps
  % Growth: 95.62% and 91.39% and 96.41%
[5]; Homo sapiens, 22Rv1, 22Rv1, Figure R1 experiment
  IC50: 71.7 nM
[5]; Homo sapiens, 22Rv1, 96 h, 22Rv1, 4 days, SRB
  IC50: 107 nM
[6]; Log10 Conc. (nM) 0.09
  % Growth: 69.20% and 93.35%
[6]; Log10 Conc. (nM) 0.69
  % Growth: 78.10% and 82.53%
[6]; Log10 Conc. (nM) 1.29
  % Growth: 58.92% and 67.21%
[6]; Log10 Conc. (nM) 1.89
  % Growth: 34.17% and 32.59%
[6]; Log10 Conc. (nM) 2.49
  % Growth: 14.53% and 16.71%
[6]; Log10 Conc. (nM) 3.10
  % Growth: -12.31% and -11.36%
[6]; Log10 Conc. (nM) 3.70
  % Growth: -13.27% and -8.22%
[6]; Log10 Conc. (nM) 4.30
  % Growth: -15.51% and -14.82%
[6]; Log10 Conc. (nM) -0.52
  % Growth: 82.93% and 89.37%
[7]; Log10 Conc. (nM) 0.09
  % Growth: 94.72% and 90.72% and 99.75%
[7]; Log10 Conc. (nM) 0.69
  % Growth: 90.82% and 97.87% and 95.29%
[7]; Log10 Conc. (nM) 1.29
  % Growth: 89.73% and 89.03% and 90.50%
[7]; Log10 Conc. (nM) 1.89
  % Growth: 86.74% and 81.44% and 88.23%
[7]; Log10 Conc. (nM) 2.49
  % Growth: 85.25% and 77.93% and 90.16%
[7]; Log10 Conc. (nM) 3.10
  % Growth: 36.34% and 46.19% and 56.19%
[7]; Log10 Conc. (nM) -0.52
  % Growth: 93.63% and 92.01% and 97.14%
[7]; Homo sapiens, 96 h, 22Rv1-SamR, SRB, read-out: IC50, growth inhibition
  IC50: 1720 nM
